Test results reported in the NIST ThermoML archive (doi:10.1016/j.tca.2005.03.009).

Experiment: excess molar enthalpy (molar enthalpy of mixing); xn = mol fraction of the nth substance listed
Details: 298.15 K, 10000 kPa, Liquid, Flow calorimetry

CCOC(C)=O [ethyl acetate] + CCO
Details	excess molar enthalpy [kcal/mol]
x1 = 0.03	0.0337
x1 = 0.054	0.0591
x1 = 0.078	0.0875
x1 = 0.104	0.112
x1 = 0.13	0.135
x1 = 0.157	0.158
x1 = 0.184	0.18
x1 = 0.213	0.202
x1 = 0.243	0.223
x1 = 0.274	0.241
x1 = 0.306	0.259
x1 = 0.339	0.274
x1 = 0.373	0.288
x1 = 0.409	0.299
x1 = 0.446	0.31
x1 = 0.485	0.317
x1 = 0.525	0.32
x1 = 0.567	0.318
x1 = 0.611	0.313
x1 = 0.657	0.301
x1 = 0.705	0.285
x1 = 0.754	0.26
x1 = 0.807	0.226
x1 = 0.861	0.182
x1 = 0.919	0.122
x1 = 0.939	0.0955
x1 = 0.96	0.0656

CCOC(C)=O [ethyl acetate] + CC(C)O
Details	excess molar enthalpy [kcal/mol]
x1 = 0.039	0.065
x1 = 0.07	0.114
x1 = 0.1	0.155
x1 = 0.132	0.192
x1 = 0.163	0.228
x1 = 0.196	0.259
x1 = 0.229	0.289
x1 = 0.262	0.313
x1 = 0.296	0.336
x1 = 0.331	0.356
x1 = 0.366	0.372
x1 = 0.402	0.387
x1 = 0.439	0.395
x1 = 0.476	0.404
x1 = 0.514	0.409
x1 = 0.553	0.406
x1 = 0.592	0.402
x1 = 0.632	0.39
x1 = 0.673	0.374
x1 = 0.715	0.351
x1 = 0.758	0.321
x1 = 0.801	0.283
x1 = 0.845	0.239
x1 = 0.891	0.182
x1 = 0.937	0.115
x1 = 0.952	0.0903
x1 = 0.969	0.0607

CCOC(C)=O [ethyl acetate] + CO
Details	excess molar enthalpy [kcal/mol]
x1 = 0.057	0.0436
x1 = 0.086	0.0651
x1 = 0.113	0.0798
x1 = 0.188	0.125
x1 = 0.257	0.163
x1 = 0.319	0.193
x1 = 0.377	0.214
x1 = 0.43	0.231
x1 = 0.478	0.238
x1 = 0.524	0.242
x1 = 0.566	0.241
x1 = 0.605	0.236
x1 = 0.641	0.234
x1 = 0.675	0.226
x1 = 0.707	0.218
x1 = 0.738	0.208
x1 = 0.766	0.196
x1 = 0.793	0.183
x1 = 0.818	0.17
x1 = 0.842	0.156
x1 = 0.864	0.14
x1 = 0.886	0.124
x1 = 0.906	0.107
x1 = 0.926	0.0879
x1 = 0.944	0.068
x1 = 0.962	0.0478
x1 = 0.979	0.0253

CCC(C)=O [butanone] + CCOC(C)=O
Details	excess molar enthalpy [kcal/mol]
x2 = 0.047	0.0711
x2 = 0.082	0.119
x2 = 0.118	0.165
x2 = 0.153	0.201
x2 = 0.189	0.24
x2 = 0.225	0.271
x2 = 0.262	0.301
x2 = 0.298	0.323
x2 = 0.335	0.346
x2 = 0.371	0.362
x2 = 0.408	0.378
x2 = 0.446	0.389
x2 = 0.483	0.4
x2 = 0.52	0.405
x2 = 0.558	0.403
x2 = 0.596	0.401
x2 = 0.634	0.387
x2 = 0.673	0.374
x2 = 0.711	0.354
x2 = 0.75	0.33
x2 = 0.789	0.296
x2 = 0.828	0.261
x2 = 0.867	0.216
x2 = 0.907	0.163
x2 = 0.947	0.103
x2 = 0.96	0.0773
x2 = 0.974	0.0518

CCOC(C)=O [ethyl acetate] + CCCO
Details	excess molar enthalpy [kcal/mol]
x1 = 0.039	0.0599
x1 = 0.068	0.0949
x1 = 0.098	0.129
x1 = 0.129	0.161
x1 = 0.16	0.19
x1 = 0.192	0.22
x1 = 0.225	0.243
x1 = 0.258	0.268
x1 = 0.291	0.288
x1 = 0.326	0.306
x1 = 0.361	0.326
x1 = 0.396	0.338
x1 = 0.433	0.349
x1 = 0.47	0.355
x1 = 0.508	0.361
x1 = 0.547	0.362
x1 = 0.586	0.359
x1 = 0.627	0.35
x1 = 0.668	0.339
x1 = 0.71	0.321
x1 = 0.753	0.296
x1 = 0.797	0.265
x1 = 0.842	0.223
x1 = 0.888	0.173
x1 = 0.935	0.109
x1 = 0.951	0.0839
x1 = 0.968	0.0573
